# Experimental data reported in patent US20160375006A1, “USES OF PARALOG-SELECTIVE INHIBITORS OF GSK3 KINASES” (priority 2012, published 2016).
# Tests used:
# LCK = LCK (Homo sapiens, UniProt P06239)
# Experimental: (§1) This was completed utilizing one of two assays depending on the kinase being examined.
# (§2) A solution of IMAP binding reagent (IMAP Screening Express kit; Molecular Devices) (60 μL) was added to each well and incubated for 30 minutes.
# (§3) A solution of termination buffer (QuickScout Screening assist MSA; Carna Biosciences) (60 μL) was added to each well. The entire reaction mixture was then applied to a LabChip3000 system (Caliper Life Science) and the product and substrate peptide peaks were separated and quantified.
# (§4) The assay utilized was identical to that of the single point inhibitory activity determination (MSA) but run in dose response. […] A solution of termination buffer (QuickScout Screening assist MSA; Carna Biosciences) (60 μL) was added to each well. The entire reaction mixture was then applied to a LabChip3000 system (Caliper Life Science) and the product and substrate peptide peaks were separated and quantified.
# CLK1 = CLK1 (Homo sapiens, UniProt P49759); experiment: Carna kinase panel; assay type: biochemical
# Experimental: as §1, §2, §3
# CaMK1α = CaMK1α (Homo sapiens, UniProt Q14012)
# Experimental: as §1, §2, §3, §4
# PIM1 = PIM1 (Homo sapiens, UniProt P11309)
# Experimental: as §1, §2, §3
# MAP3K5_Cascade = MAP3K5_Cascade (Homo sapiens, UniProt Q99683)
# Experimental: as §1, §2, §3, §4
# YES(T348I) = YES(T348I) (Homo sapiens, UniProt P07947, T348I)
# Experimental: as §1, §2, §3, §4
# BRAF(V600E)_Cascade = BRAF(V600E)_Cascade (Homo sapiens, UniProt P15056, V600E)
# Experimental: as §1, §2, §3
# INSR = INSR (Homo sapiens, UniProt P06213)
# AKT3 = AKT3 (Homo sapiens, UniProt Q9Y243)
# Experimental: as §1, §2, §3, §4
# FGFR2 = FGFR2 (Homo sapiens, UniProt P21802)
# Experimental: as §1, §2, §3
# DYRK1B = DYRK1B (Homo sapiens, UniProt Q9Y463)
# Experimental: as §1, §2, §3, §4
# AKT2 = AKT2 (Homo sapiens, UniProt P31751)
# Experimental: as §1, §2, §3, §4
# HCK = HCK (Homo sapiens, UniProt P08631)
# Experimental: as §1, §2, §3
# MUSK = MUSK (Homo sapiens, UniProt O15146)
# Experimental: as §1, §2, §3, §4
# AurB = AurB (Homo sapiens, UniProt Q96GD4)
# Experimental: as §2, §3, §4
# MLK1_Cascade = MLK1_Cascade (Homo sapiens, UniProt P80192)
# Experimental: as §1, §3
# The assay utilized was identical to that of the single point inhibitory activity determination (MSA) but run in dose response.
# TAOK2 = TAOK2 (Homo sapiens, UniProt Q9UL54)
# Experimental: as §1, §2, §3
# MET = MET (Homo sapiens, UniProt P08581)
# Experimental: as §2, §3, §4
# KIT(T670I) = KIT(T670I) (Homo sapiens, UniProt P10721, T670I)
# Experimental: as §1, §2, §3, §4
# DYRK1A = DYRK1A (Homo sapiens, UniProt Q13627)
# Experimental: as §1, §2, §3, §4
# CK1ε = CK1ε (Homo sapiens, UniProt P49674)
# Experimental: as §1, §2, §3
# MET(Y1235D) = MET(Y1235D) (Homo sapiens, UniProt P08581, Y1235D)
# Experimental: as §1, §2, §3, §4
# MER = MER (Homo sapiens, UniProt Q12866)
# Experimental: as §1, §2, §3, §4
# DCAMKL2 = DCAMKL2 (Homo sapiens, UniProt Q8N568)
# Experimental: as §1, §2, §3, §4
# DYRK3 = DYRK3 (Homo sapiens, UniProt O43781)
# Experimental: as §1, §2, §3, §4
# PIK3CA/PIK3R1 = PIK3CA/PIK3R1 (Homo sapiens, UniProt P42336)
# Experimental: as §1, §2, §3, §4
# HIPK1 = HIPK1 (Homo sapiens, UniProt Q86Z02)
# Experimental: as §1, §2, §3
# EPHA7 = EPHA7 (Homo sapiens, UniProt Q15375)
# Experimental: as §1, §2, §3, §4
# MAP3K1_Cascade = MAP3K1_Cascade (Homo sapiens, UniProt Q13233)
# Experimental: as §1, §2, §3, §4
# AKT1 = AKT1 (Homo sapiens, UniProt P31749)
# Experimental: as §1, §2, §3, §4
# HER4 = HER4 (Homo sapiens, UniProt Q15303)
# Experimental: as §1, §2, §3
# SGK2 = SGK2 (Homo sapiens, UniProt Q9HBY8)
# Experimental: as §1, §2, §3, §4
# EGFR(L858R) = EGFR(L858R) (Homo sapiens, UniProt P00533, L858R)
# Experimental: as §1, §2, §3, §4
# EPHA5 = EPHA5 (Homo sapiens, UniProt P54756)
# Experimental: as §1, §2, §3, §4
# MAP2K5_Cascade = MAP2K5_Cascade (Homo sapiens, UniProt Q13163)
# Experimental: as §2, §3, §4
# LYNa = LYNa (Homo sapiens, UniProt P07948)
# Experimental: as §1, §2, §3
# FGFR1(V561M) = FGFR1(V561M) (Homo sapiens, UniProt P11362, V561M)
# Experimental: as §1, §2, §3, §4
# PDHK4 = PDHK4 (Homo sapiens, UniProt Q16654)
# Experimental: as §1, §2, §3, §4
# PKD2 = PKD2 (Homo sapiens, UniProt Q9BZL6)
# Experimental: as §1, §2, §3, §4
# PIM2 = PIM2 (Homo sapiens, UniProt Q9P1W9)
# Experimental: as §1, §2, §3, §4
# Sequence of MET(Y1235D) (P08581 25-1390 Y1235D): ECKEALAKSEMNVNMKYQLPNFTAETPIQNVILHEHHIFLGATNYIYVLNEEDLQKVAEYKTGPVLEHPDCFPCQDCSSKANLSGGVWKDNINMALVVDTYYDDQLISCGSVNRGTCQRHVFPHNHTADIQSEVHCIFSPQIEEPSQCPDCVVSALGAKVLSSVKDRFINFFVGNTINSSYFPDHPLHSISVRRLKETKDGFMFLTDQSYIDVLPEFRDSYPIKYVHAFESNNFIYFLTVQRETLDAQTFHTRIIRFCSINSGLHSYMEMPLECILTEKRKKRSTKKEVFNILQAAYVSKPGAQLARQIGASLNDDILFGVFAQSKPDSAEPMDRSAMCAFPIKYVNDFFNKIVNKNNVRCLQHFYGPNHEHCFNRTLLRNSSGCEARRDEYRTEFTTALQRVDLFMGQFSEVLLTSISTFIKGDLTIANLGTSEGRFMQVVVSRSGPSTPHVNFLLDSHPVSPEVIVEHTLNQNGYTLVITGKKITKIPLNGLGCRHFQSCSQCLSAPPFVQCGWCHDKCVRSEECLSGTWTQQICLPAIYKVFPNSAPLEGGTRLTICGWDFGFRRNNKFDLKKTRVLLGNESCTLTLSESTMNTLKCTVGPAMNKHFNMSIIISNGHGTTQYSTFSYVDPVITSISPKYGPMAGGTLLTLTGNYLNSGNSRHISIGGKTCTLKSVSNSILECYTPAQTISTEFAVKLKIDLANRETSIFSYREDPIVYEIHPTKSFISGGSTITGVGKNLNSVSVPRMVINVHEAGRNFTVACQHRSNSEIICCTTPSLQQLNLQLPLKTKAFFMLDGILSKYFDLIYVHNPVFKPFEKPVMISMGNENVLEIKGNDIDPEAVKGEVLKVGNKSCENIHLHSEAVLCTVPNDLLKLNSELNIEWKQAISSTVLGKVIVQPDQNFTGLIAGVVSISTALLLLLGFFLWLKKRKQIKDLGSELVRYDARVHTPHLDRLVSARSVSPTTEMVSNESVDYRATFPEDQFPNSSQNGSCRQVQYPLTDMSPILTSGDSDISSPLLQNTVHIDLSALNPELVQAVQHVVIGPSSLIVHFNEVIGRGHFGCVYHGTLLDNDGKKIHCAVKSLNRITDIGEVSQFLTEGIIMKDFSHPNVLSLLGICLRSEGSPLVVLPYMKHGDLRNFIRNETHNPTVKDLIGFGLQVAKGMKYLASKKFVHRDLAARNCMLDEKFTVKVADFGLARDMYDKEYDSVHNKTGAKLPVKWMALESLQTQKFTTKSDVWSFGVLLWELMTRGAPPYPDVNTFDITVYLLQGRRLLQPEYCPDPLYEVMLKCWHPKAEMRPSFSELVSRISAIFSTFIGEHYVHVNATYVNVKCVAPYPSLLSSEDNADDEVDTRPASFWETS
# Sequence of CLK1 (P49759 whole entry): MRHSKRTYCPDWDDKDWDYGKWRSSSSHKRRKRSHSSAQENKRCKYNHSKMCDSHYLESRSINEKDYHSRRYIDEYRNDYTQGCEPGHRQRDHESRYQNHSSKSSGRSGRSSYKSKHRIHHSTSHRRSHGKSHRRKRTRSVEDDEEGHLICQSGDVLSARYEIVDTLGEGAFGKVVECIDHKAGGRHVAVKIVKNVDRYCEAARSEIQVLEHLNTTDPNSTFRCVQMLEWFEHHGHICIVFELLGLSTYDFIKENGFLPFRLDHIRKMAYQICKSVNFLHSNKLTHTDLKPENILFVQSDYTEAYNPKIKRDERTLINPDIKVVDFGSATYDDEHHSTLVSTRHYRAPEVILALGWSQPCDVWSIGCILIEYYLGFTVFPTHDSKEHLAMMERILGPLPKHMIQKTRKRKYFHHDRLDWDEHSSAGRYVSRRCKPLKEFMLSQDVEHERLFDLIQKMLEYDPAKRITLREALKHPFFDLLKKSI
# Sequence of AurB (Q96GD4 whole entry): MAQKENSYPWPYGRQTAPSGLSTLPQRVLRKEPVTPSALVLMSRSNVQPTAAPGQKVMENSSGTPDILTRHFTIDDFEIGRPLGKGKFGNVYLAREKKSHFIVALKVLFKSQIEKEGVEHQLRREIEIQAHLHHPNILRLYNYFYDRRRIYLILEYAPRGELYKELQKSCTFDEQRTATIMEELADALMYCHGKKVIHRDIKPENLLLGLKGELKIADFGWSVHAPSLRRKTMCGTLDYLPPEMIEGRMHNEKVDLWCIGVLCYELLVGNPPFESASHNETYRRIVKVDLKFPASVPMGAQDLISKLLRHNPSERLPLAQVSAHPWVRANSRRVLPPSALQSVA
# Sequence of AKT1 (P31749 whole entry): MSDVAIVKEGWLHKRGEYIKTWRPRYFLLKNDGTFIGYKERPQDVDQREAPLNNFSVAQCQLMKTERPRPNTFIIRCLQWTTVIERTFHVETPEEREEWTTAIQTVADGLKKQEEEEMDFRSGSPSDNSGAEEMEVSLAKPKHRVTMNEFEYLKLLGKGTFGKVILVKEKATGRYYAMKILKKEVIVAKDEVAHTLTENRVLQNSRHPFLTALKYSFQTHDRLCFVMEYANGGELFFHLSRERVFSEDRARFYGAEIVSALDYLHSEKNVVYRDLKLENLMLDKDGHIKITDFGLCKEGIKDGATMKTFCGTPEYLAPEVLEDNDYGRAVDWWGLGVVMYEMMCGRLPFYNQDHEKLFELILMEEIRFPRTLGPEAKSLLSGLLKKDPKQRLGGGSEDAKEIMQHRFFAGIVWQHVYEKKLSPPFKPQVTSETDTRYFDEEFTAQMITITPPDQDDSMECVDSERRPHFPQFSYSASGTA
# Sequence of SGK2 (Q9HBY8 whole entry): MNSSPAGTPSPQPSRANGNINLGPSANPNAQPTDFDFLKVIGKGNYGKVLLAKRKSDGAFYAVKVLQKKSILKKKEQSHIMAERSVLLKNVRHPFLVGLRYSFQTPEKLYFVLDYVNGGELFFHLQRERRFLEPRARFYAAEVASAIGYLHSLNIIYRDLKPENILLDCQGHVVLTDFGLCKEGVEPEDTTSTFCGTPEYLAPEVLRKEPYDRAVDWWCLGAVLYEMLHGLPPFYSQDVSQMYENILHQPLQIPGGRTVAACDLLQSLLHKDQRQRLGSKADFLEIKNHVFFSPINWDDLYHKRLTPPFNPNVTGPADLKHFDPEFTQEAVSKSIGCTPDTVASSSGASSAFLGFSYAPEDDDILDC
# Sequence of LYNa (P07948 whole entry): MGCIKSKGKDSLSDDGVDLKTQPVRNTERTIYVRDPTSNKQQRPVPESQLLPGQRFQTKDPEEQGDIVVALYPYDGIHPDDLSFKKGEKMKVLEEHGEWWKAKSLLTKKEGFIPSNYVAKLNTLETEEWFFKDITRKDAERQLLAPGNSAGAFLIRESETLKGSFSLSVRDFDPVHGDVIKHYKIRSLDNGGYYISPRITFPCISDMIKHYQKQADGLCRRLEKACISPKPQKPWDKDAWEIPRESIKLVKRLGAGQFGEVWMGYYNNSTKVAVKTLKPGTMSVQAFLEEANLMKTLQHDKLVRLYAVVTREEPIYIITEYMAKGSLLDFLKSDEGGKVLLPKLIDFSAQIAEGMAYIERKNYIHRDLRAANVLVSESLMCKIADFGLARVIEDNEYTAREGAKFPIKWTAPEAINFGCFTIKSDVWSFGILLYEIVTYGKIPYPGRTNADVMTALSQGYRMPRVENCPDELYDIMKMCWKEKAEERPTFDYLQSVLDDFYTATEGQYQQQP
# Sequence of DCAMKL2 (Q8N568 whole entry): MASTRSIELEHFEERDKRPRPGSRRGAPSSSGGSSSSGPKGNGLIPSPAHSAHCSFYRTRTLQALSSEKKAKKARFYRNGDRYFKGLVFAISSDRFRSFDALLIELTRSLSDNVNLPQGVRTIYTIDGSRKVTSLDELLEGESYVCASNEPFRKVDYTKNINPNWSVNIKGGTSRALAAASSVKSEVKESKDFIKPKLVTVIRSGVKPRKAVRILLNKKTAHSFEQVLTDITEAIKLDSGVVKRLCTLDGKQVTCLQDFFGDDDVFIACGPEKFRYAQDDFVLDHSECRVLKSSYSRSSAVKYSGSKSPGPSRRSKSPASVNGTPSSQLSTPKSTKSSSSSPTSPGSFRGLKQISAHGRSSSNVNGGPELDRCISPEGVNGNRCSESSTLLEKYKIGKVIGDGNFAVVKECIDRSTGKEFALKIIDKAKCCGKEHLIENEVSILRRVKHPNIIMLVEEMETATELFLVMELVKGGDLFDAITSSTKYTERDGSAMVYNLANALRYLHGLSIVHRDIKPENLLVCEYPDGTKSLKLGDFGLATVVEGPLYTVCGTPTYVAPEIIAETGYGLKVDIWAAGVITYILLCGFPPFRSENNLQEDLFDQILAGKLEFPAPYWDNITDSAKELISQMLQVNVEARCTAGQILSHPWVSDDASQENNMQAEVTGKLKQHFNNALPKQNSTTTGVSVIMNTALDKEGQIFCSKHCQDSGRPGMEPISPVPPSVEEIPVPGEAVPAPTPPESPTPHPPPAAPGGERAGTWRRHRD
# Sequence of AKT3 (Q9Y243 whole entry): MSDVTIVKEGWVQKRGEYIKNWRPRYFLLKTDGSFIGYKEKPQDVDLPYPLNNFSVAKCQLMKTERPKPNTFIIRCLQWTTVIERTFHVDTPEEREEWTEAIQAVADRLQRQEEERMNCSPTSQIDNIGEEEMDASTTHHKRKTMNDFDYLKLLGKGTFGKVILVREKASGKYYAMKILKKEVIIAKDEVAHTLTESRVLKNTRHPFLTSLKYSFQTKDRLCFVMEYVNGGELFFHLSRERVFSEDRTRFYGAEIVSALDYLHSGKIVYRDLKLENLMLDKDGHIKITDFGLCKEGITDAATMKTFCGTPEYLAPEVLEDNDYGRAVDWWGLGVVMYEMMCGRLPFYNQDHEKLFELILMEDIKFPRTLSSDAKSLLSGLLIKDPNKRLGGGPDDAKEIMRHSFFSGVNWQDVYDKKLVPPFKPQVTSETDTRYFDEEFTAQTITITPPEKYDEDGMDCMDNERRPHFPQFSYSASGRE
compound,measurement,setting,value
CC(C)(C)Cc1[nH]nc2c1[C@](C)(c1ccccc1)C1=C(CC(C)(C)CC1=O)N2 [BRD3731],% Inhibition 10 μM,LCK; 10 μM,9.2%
same,% Inhibition 10 μM,CLK1; 10 μM,3.1%
same,% Inhibition 10 μM,CaMK1α; 10 μM,4.7%
same,% Inhibition 10 μM,PIM1; 10 μM,11.0%
same,% Inhibition 10 μM,MAP3K5_Cascade; 10 μM,0.4%
same,% Inhibition 10 μM,YES(T348I); 10 μM,−2.3%
same,% Inhibition 10 μM,BRAF(V600E)_Cascade; 10 μM,−5.2%
same,% Inhibition 10 μM,INSR; 10 μM,−2.8%
same,% Inhibition 10 μM,AKT3; 10 μM,−6.4%
same,% Inhibition 10 μM,FGFR2; 10 μM,1.9%
same,% Inhibition 10 μM,DYRK1B; 10 μM,2.0%
same,% Inhibition 10 μM,AKT2; 10 μM,−8.4%
same,% Inhibition 10 μM,HCK; 10 μM,6.6%
same,% Inhibition 10 μM,MUSK; 10 μM,−7.9%
same,% Inhibition 10 μM,AurB; 10 μM,−2.3%
same,% Inhibition 10 μM,MLK1_Cascade; 10 μM,−9.4%
same,% Inhibition 10 μM,TAOK2; 10 μM,2.2%
same,% Inhibition 10 μM,MET; 10 μM,−0.8%
same,% Inhibition 10 μM,KIT(T670I); 10 μM,−0.3%
same,% Inhibition 10 μM,DYRK1A; 10 μM,3.3%
same,% Inhibition 10 μM,CK1ε; 10 μM,28.0%
same,% Inhibition 10 μM,MET(Y1235D); 10 μM,1.2%
same,% Inhibition 10 μM,MER; 10 μM,33.7%
same,% Inhibition 10 μM,DCAMKL2; 10 μM,−1.3%
same,% Inhibition 10 μM,DYRK3; 10 μM,16.0%
same,% Inhibition 10 μM,PIK3CA/PIK3R1; 10 μM,42.5%
same,% Inhibition 10 μM,HIPK1; 10 μM,5.8%
same,% Inhibition 10 μM,EPHA7; 10 μM,−3.0%
same,% Inhibition 10 μM,MAP3K1_Cascade; 10 μM,4.0%
same,% Inhibition 10 μM,AKT1; 10 μM,−1.1%
same,% Inhibition 10 μM,HER4; 10 μM,6.5%
same,% Inhibition 10 μM,SGK2; 10 μM,10.4%
same,% Inhibition 10 μM,EGFR(L858R); 10 μM,−1.2%
same,% Inhibition 10 μM,EPHA5; 10 μM,−5.5%
same,% Inhibition 10 μM,MAP2K5_Cascade; 10 μM,6.1%
same,% Inhibition 10 μM,LYNa; 10 μM,−0.3%
same,% Inhibition 10 μM,FGFR1(V561M); 10 μM,0.3%
same,% Inhibition 10 μM,PDHK4; 10 μM,24.2%
same,% Inhibition 10 μM,PKD2; 10 μM,17.2%
same,% Inhibition 10 μM,PIM2; 10 μM,0.8%
CC[C@@]1(c2ccccc2)C2=C(CC(C)(C)CC2=O)Nc2n[nH]cc21 [BRD0705],% Inhibition at 10 μM,LCK,5.0%
same,% Inhibition at 10 μM,CLK1,−7.1%
same,% Inhibition at 10 μM,CaMK1α,−4.7%
same,% Inhibition at 10 μM,PIM1,−3.4%
same,% Inhibition at 10 μM,MAP3K5_Cascade,1.9%
same,% Inhibition at 10 μM,YES(T348I),3.3%
same,% Inhibition at 10 μM,BRAF(V600E)_Cascade,7.0%
same,% Inhibition at 10 μM,INSR,−1.4%
same,% Inhibition at 10 μM,AKT3,−8.3%
same,% Inhibition at 10 μM,FGFR2,−9.2%
same,% Inhibition at 10 μM,DYRK1B,−6.1%
same,% Inhibition at 10 μM,AKT2,−4.7%
same,% Inhibition at 10 μM,HCK,1.1%
same,% Inhibition at 10 μM,MUSK,−0.6%
same,% Inhibition at 10 μM,AurB,−2.8%
same,% Inhibition at 10 μM,MLK1_Cascade,6.3%
same,% Inhibition at 10 μM,TAOK2,−5.8%
same,% Inhibition at 10 μM,MET,−2.4%
same,% Inhibition at 10 μM,KIT(T670I),−0.8%
same,% Inhibition at 10 μM,DYRK1A,−3.1%
same,% Inhibition at 10 μM,CK1ε,−0.4%
same,% Inhibition at 10 μM,MET(Y1235D),−1.0%
same,% Inhibition at 10 μM,MER,−3.3%
same,% Inhibition at 10 μM,DCAMKL2,−0.5%
same,% Inhibition at 10 μM,DYRK3,7.7%
same,% Inhibition at 10 μM,PIK3CA/PIK3R1,−10.7%
same,% Inhibition at 10 μM,HIPK1,−6.5%
same,% Inhibition at 10 μM,EPHA7,−5.3%
same,% Inhibition at 10 μM,MAP3K1_Cascade,1.8%
same,% Inhibition at 10 μM,AKT1,−8.3%
same,% Inhibition at 10 μM,HER4,1.3%
same,% Inhibition at 10 μM,SGK2,0.8%
same,% Inhibition at 10 μM,EGFR(L858R),−4.0%
same,% Inhibition at 10 μM,EPHA5,12.7%
same,% Inhibition at 10 μM,MAP2K5_Cascade,−2.3%
same,% Inhibition at 10 μM,LYNa,−0.4%
same,% Inhibition at 10 μM,FGFR1(V561M),−3.2%
same,% Inhibition at 10 μM,PDHK4,11.0%
same,% Inhibition at 10 μM,PKD2,−22.1%
same,% Inhibition at 10 μM,PIM2,0.5%
